{"source": "patent US20040154048A1", "about": "“Activation of nuclear transfer embryos” (priority 2001, published 2004)", "key": {"porcine oocytes": {"test_system": "porcine oocytes", "settings": "ionomycin increased from 5 μM to 15 μM, low calcium levels; cited from earlier work"}, "IVM porcine oocytes": {"test_system": "IVM porcine oocytes", "assay": "Parthenogenetic activation of IVM porcine oocytes, development to blastocyst", "type": "cell-based", "settings": "5 μM ionomycin 5 min in mTALP-PVA, 6-DMAP +", "description": "The preparation of in vitro matured (IVM) oocytes was essentially as described previously (Grupen et al, (1997) Reproduction Fertility Development 9:571-575). Ovaries from slaughtered prepubertal gilts were transported to the laboratory in Dulbecco's PBS supplemented with 0.6% (v/v) of an antibiotic solution (CSL Ltd) containing penicillin (10,000 U mL^−1), streptomycin (10,000 μg mL^−1) and fungizone (25 μg mL^−1) and maintained at 38° C. Antral follicles ([…] in diameter) were aspirated using a 21-gauge needle through which constant suction (1 L min^−1) was applied. The follicular contents were pooled in a collection tube. Cumulus-oocyte complexes (COCs) with at least three uniform layers of compact cumulus cells were recovered from the collected fluid, washed three times in OMM199a, transferred to 50 μl droplets (25 COCs per droplet) of OMM199a covered with mineral oil in a petrie dish (Becton Dickinson and Company, Plymouth, England) and incubated at 38.5° C. in a humidified atmosphere of 5% CO2 in air. After twenty two hours of maturation, expanded COCs were washed once in OMM199 without dibutyryl cAMP (OMM199b), transferred to 50 μl droplets of OMM199b and incubated for a further twenty four hours. At the end of the forty six hours maturation interval, the oocytes were treated with 0.5 mg mL^−1 hyaluronidase for one minute and then gently aspirated with a small bore glass pipette to remove the cumulus cells. Oocytes that had extruded a polar body were washed and kept in culture medium prior to activation.\nThe experiments hereafter were conducted with oocytes rather than nuclear transfer embryos. These experiments are termed parthenogenetic, since they are done without fertilized embryos. Parthenogenetic experiments are used routinely as a model system to investigate NT, largely because of the expense and additional experimental manipulation involved with NT embryos. Parthenogenetic experiments provide very useful information for the development of NT technology, and are directly predictive of NT outcomes.\nOocytes were activated forty six to forty eight hours after the start of maturation. Denuded oocytes that had extruded a polar body were washed and kept in modified TALP-PVA medium supplemented with 3.0 mM Ca-lactate (mTALP-PVA) for approximately one hour prior to activation. Oocytes were transferred to mTALP-PVA containing 5 μM ionomycin for five minutes. Oocytes were then washed twice and incubated in culture medium containing 2 mM 6-DMAP for three hours. The 6-DMAP treated oocytes were then washed twice and transferred to 50 μl droplets of the culture medium under mineral oil. In the ionomycin * treatment oocytes were not washed in media containing 6-DMAP."}}, "note": "Marks after values point to notes of the source that are not given here."}
{"compound": "C[C@H](CCC(=O)O)C[C@H](C)C[C@H](C)C(=O)/C=C(\\O)[C@H](C)C[C@H](C)C/C=C/[C@@H](C)[C@@H](O)[C@@H](C)[C@@H](O)C[C@@H]1CC[C@@](C)([C@H]2CC[C@@](C)([C@@H](C)O)O2)O1", "note": "[Ionomycin, ionomycin]", "values": [{"measurement": "oocytes developing parthenogenetically to blastocyst stage", "setting": "porcine oocytes", "result": 23, "unit": "%"}, {"measurement": "Percentage developing to blastocyst, Day 6", "setting": "IVM porcine oocytes", "result": "49^c %"}, {"measurement": "Percentage developing to blastocyst, Day 6", "setting": "IVM porcine oocytes; listed as Ionomycin*", "result": "1^d %"}, {"measurement": "Percentage developing to blastocyst, Day 7", "setting": "IVM porcine oocytes", "result": "51^c %"}, {"measurement": "Percentage developing to blastocyst, Day 7", "setting": "IVM porcine oocytes; listed as Ionomycin*", "result": "1^d %"}]}
